Experimental findings from patent US20190070154A1, “NEW METHODS OF USE FOR AN ANTI-DIARRHEA AGENT” (Duke University, priority 2015, published 2019) are described below.

The structures appear in SMILES notation.

For this assay, the system named is Wnt/β-catenin transcription. Nature of the assay: TOPFlash Reporter Assay (Wnt-3A-stimulated HEK293 cells stably transfected with p8xTOPFlash). The format is cell-based. As to conditions: for IC50: Homo sapiens, read-out: Inhibition Wnt/β-catenin transcription TopFlash IC50; for IC50 / Inhibition Wnt/β-catenin transcription TopFlash, % inhibition: HEK293 TOPFlash cells, Wnt-3A conditioned medium, 8 hour treatment. On the procedure: Wnt-3A conditioned medium was prepared using L WNT-3A cells (ATCC(CRL-2647™) purchased from ATCC. Conditioned medium was obtained following published protocols (http://www.atcc.org/Products/All/CRL-2647.aspx#culturemethod) (Chen, M. Y.; Wang, J. B.; Lu, J. Y.; Bond, M. C.; Ren, X. R.; Lyerly, H. K.; Barak, L. S.; Chen, W. Biochemistry 2009, 48, 10267). HEK293 cells were stably transfected with p8×TOPFlash, Renilla luciferase plasmid pRL-TK (Promega), and pLKO.1 as previously published (Chen, M. Y.; Wang, J. B.; Lu, J. Y.; Bond, M. C.; Ren, X. R.; Lyerly, H. K.; Barak, L. S.; Chen, W. Biochemistry 2009, 48, 10267). Stably transfected cells were seeded in 100 μl of cell growth medium/well in 96-well plates at 100% confluency. Fifty microliters of Wnt-3A conditioned medium containing the chemical compounds to be tested or DMSO was added to each well. After an 8 hour treatment, the cells were washed once with PBS and lysed with 55 μl of Passive Lysis Buffer supplied in the Dual-Luciferase Reporter Assay kit (Promega, Madison, Wis.). Twenty-five microliters of cell lysate was used for measuring luciferase activity in a 96-well plate reader (FluoStar Optima, BMG Labtech, Chicago, Ill.). Data were fit using GraphPad Prism (mean±SEM, n>=2).
Data is from a single experiment unless otherwise noted. Data that is an average of two experiments is noted as “n=2” while data that is an average of three or more experiments is presented as the average plus or minus the standard error of the mean.

Regarding `O=C(Nc1ccc([N+](=O)[O-])cc1Cl)c1cc(Cl)ccc1O` [A, reference compound], the IC50 was 0.49 µM. Still for that read-out and setting: the same measure for `O=C(Nc1ncc([N+](=O)[O-])s1)c1ccccc1O` [B, reference compound]: greater than 12 µM; for `CC(=O)Oc1ccccc1C(=O)Nc1ncc([N+](=O)[O-])s1` [C, reference compound]: 11.4 µM. For `O=C(Nc1ccncc1Cl)c1cc(Cl)ccc1O` [Compound 1, 5-chloro-N-(3-chloropyridin-4-yl)-2-hydroxybenzamide], the “Inhibition Wnt/β-catenin transcription TopFlash, % inhibition” value (at 10 μM) is listed as 80% inhibition at 10 μM.

In the case of `O=C(Nc1ccc([N+](=O)[O-])cn1)c1cc(Cl)ccc1O` [Compound 2, 5-chloro-2-hydroxy-N-(5-nitropyridin-2-yl)benzamide], the “Inhibition Wnt/β-catenin transcription TopFlash, % inhibition” value (at 2 μM) stood at 75% inhibition at 2 μM. As for `O=C(Nc1ccc(C(F)(F)F)cn1)c1cc(Cl)ccc1O` [Compound 3, 5-chloro-2-hydroxy-N-(5-(trifluoromethyl)pyridin-2-yl)benzamide], the IC50 is 1.67 µM. The same measure, in the same setting: the same measure for `O=C(Nc1ncc(C(F)(F)F)cc1Cl)c1cc(Cl)ccc1O` [Compound 4, 5-chloro-N-(3-chloro-5-(trifluoromethyl)pyridin-2-yl)-2-hydroxybenzamide]: 17.4 µM; for `O=C(Nc1ncc([N+](=O)[O-])s1)c1cc(Cl)ccc1O` [Compound 5, 5-chloro-2-hydroxy-N-(5-nitrothiazol-2-yl)benzamide]: 8.8 µM. Regarding `CC(=O)Oc1ccccc1C(=O)Nc1ncc([N+](=O)[O-])s1` [nitazoxanide, reference compound], the “Inhibition of the Wnt/Frizzled signaling pathway (statement in words)” value is “inhibitor of the Wnt/Frizzled signaling pathway”.
